Test results from the NIST ThermoML archive (doi:10.1021/acs.jced.7b00201).

Assay: xn = mol fraction of the nth substance listed
Conditions: 100 kPa, Liquid; for viscosity: Falling or rolling sphere viscometry; for mass density: Vibrating tube method

CCCCC1CCCCC1 [butylcyclohexane] + CCCCCCCCCCCC
Conditions	mass density [kg/m3]	viscosity [mPa·s]
293.15 K, x2 = 0	799.34	1.305
293.15 K, x2 = 0.1017	792.77	1.319
293.15 K, x2 = 0.1996	786.82	1.334
293.15 K, x2 = 0.2951	781.36	1.348
293.15 K, x2 = 0.4221	774.55	1.369
293.15 K, x2 = 0.5126	769.99	1.384
293.15 K, x2 = 0.6256	764.59	1.404
293.15 K, x2 = 0.7002	761.2	1.418
293.15 K, x2 = 0.7989	756.92	1.437
293.15 K, x2 = 0.9012	752.7	1.457
298.15 K, x2 = 0	795.59	1.202
298.15 K, x2 = 0.1017	789.05	1.215
298.15 K, x2 = 0.1996	783.12	1.228
298.15 K, x2 = 0.2951	777.68	1.241
298.15 K, x2 = 0.4221	770.9	1.258
298.15 K, x2 = 0.5126	766.35	1.272
298.15 K, x2 = 0.6256	760.96	1.289
298.15 K, x2 = 0.7002	757.57	1.3
298.15 K, x2 = 0.7989	753.3	1.318
298.15 K, x2 = 0.9012	749.09	1.335
303.15 K, x2 = 0	791.84	1.112
303.15 K, x2 = 0.1017	785.32	1.123
303.15 K, x2 = 0.1996	779.41	1.135
303.15 K, x2 = 0.2951	773.99	1.146
303.15 K, x2 = 0.4221	767.22	1.162
303.15 K, x2 = 0.5126	762.68	1.173
303.15 K, x2 = 0.6256	757.3	1.187
303.15 K, x2 = 0.7002	753.92	1.197
303.15 K, x2 = 0.7989	749.66	1.211
303.15 K, x2 = 0.9012	745.45	1.226
308.15 K, x2 = 0	788.07	1.033
308.15 K, x2 = 0.1017	781.58	1.043
308.15 K, x2 = 0.1996	775.69	1.053
308.15 K, x2 = 0.2951	770.28	1.063
308.15 K, x2 = 0.4221	763.53	1.076
308.15 K, x2 = 0.5126	759.01	1.086
308.15 K, x2 = 0.6256	753.64	1.1
308.15 K, x2 = 0.7002	750.27	1.108
308.15 K, x2 = 0.7989	746.01	1.122
308.15 K, x2 = 0.9012	741.81	1.137
313.15 K, x2 = 0	784.3	0.963
313.15 K, x2 = 0.1017	777.82	0.971
313.15 K, x2 = 0.1996	771.96	0.98
313.15 K, x2 = 0.2951	766.57	0.989
313.15 K, x2 = 0.4221	759.84	1.001
313.15 K, x2 = 0.5126	755.32	1.009
313.15 K, x2 = 0.6256	749.97	1.021
313.15 K, x2 = 0.7002	746.6	1.029
313.15 K, x2 = 0.7989	742.35	1.041
313.15 K, x2 = 0.9012	738.16	1.054
318.15 K, x2 = 0	780.52	0.901
318.15 K, x2 = 0.1017	774.07	0.908
318.15 K, x2 = 0.1996	768.22	0.915
318.15 K, x2 = 0.2951	762.85	0.923
318.15 K, x2 = 0.4221	756.14	0.934
318.15 K, x2 = 0.5126	751.63	0.942
318.15 K, x2 = 0.6256	746.29	0.952
318.15 K, x2 = 0.7002	742.93	0.959
318.15 K, x2 = 0.7989	738.69	0.969
318.15 K, x2 = 0.9012	734.5	0.98
323.15 K, x2 = 0	776.74	0.844
323.15 K, x2 = 0.1017	770.3	0.851
323.15 K, x2 = 0.1996	764.47	0.858
323.15 K, x2 = 0.2951	759.12	0.864
323.15 K, x2 = 0.4221	752.42	0.874
323.15 K, x2 = 0.5126	747.93	0.881
323.15 K, x2 = 0.6256	742.6	0.89
323.15 K, x2 = 0.7002	739.25	0.896
323.15 K, x2 = 0.7989	735.02	0.905
323.15 K, x2 = 0.9012	730.84	0.915
328.15 K, x2 = 0	772.93	0.794
328.15 K, x2 = 0.1017	766.52	0.8
328.15 K, x2 = 0.1996	760.71	0.806
328.15 K, x2 = 0.2951	755.37	0.812
328.15 K, x2 = 0.4221	748.7	0.821
328.15 K, x2 = 0.5126	744.22	0.827
328.15 K, x2 = 0.6256	738.9	0.834
328.15 K, x2 = 0.7002	735.56	0.84
328.15 K, x2 = 0.7989	731.33	0.848
328.15 K, x2 = 0.9012	727.16	0.858
333.15 K, x2 = 0	769.13	0.749
333.15 K, x2 = 0.1017	762.73	0.754
333.15 K, x2 = 0.1996	756.94	0.759
333.15 K, x2 = 0.2951	751.62	0.763
333.15 K, x2 = 0.4221	744.96	0.771
333.15 K, x2 = 0.5126	740.49	0.775
333.15 K, x2 = 0.6256	735.19	0.781
333.15 K, x2 = 0.7002	731.86	0.787
333.15 K, x2 = 0.7989	727.64	0.794
333.15 K, x2 = 0.9012	723.48	0.803
338.15 K, x2 = 0	765.3	0.708
338.15 K, x2 = 0.1017	758.93	0.712
338.15 K, x2 = 0.1996	753.16	0.716
338.15 K, x2 = 0.2951	747.85	0.721
338.15 K, x2 = 0.4221	741.21	0.728
338.15 K, x2 = 0.5126	736.75	0.733
338.15 K, x2 = 0.6256	731.47	0.738
338.15 K, x2 = 0.7002	728.14	0.742
338.15 K, x2 = 0.7989	723.94	0.749
338.15 K, x2 = 0.9012	719.78	0.756
343.15 K, x2 = 0	761.47	0.67
343.15 K, x2 = 0.1017	755.12	0.674
343.15 K, x2 = 0.1996	749.37	0.678
343.15 K, x2 = 0.2951	744.07	0.682
343.15 K, x2 = 0.4221	737.45	0.687
343.15 K, x2 = 0.5126	733	0.691
343.15 K, x2 = 0.6256	727.73	0.696
343.15 K, x2 = 0.7002	724.41	0.701
343.15 K, x2 = 0.7989	720.22	0.708
343.15 K, x2 = 0.9012	716.08	0.715
